Values of other authors as cited in patent US20220265684A1, “COMPOSITIONS AND METHODS FOR TREATING ULCERATIVE COLITIS” (9 METERS BIOPHARMA, INC., priority 2021, published 2022).

Details: after administration of 100 mg (1 tablet); Actarit PI

Nc1ccc(CC(=O)O)cc1 [4-APAA, 4-aminophenylacetic acid]
AUC0-∞: 4560 ng·h/mL
Cmax: 2240 ng/mL
